Results on 4 compounds are retold here after ChEMBL document CHEMBL4270552, “4-(Phenoxy) and 4-(benzyloxy)benzamides as potent and selective inhibitors of mono-ADP-ribosyltransferase PARP10/ARTD10” (Eur J Med Chem, 2018).

A value given as a limit tells only on which side of the number the result lay.

The first experiment addresses T1, Poly [ADP-ribose] polymerase tankyrase-2 (Homo sapiens, UniProt Q9H2K2).
T1 sequence (Q9H2K2 whole entry): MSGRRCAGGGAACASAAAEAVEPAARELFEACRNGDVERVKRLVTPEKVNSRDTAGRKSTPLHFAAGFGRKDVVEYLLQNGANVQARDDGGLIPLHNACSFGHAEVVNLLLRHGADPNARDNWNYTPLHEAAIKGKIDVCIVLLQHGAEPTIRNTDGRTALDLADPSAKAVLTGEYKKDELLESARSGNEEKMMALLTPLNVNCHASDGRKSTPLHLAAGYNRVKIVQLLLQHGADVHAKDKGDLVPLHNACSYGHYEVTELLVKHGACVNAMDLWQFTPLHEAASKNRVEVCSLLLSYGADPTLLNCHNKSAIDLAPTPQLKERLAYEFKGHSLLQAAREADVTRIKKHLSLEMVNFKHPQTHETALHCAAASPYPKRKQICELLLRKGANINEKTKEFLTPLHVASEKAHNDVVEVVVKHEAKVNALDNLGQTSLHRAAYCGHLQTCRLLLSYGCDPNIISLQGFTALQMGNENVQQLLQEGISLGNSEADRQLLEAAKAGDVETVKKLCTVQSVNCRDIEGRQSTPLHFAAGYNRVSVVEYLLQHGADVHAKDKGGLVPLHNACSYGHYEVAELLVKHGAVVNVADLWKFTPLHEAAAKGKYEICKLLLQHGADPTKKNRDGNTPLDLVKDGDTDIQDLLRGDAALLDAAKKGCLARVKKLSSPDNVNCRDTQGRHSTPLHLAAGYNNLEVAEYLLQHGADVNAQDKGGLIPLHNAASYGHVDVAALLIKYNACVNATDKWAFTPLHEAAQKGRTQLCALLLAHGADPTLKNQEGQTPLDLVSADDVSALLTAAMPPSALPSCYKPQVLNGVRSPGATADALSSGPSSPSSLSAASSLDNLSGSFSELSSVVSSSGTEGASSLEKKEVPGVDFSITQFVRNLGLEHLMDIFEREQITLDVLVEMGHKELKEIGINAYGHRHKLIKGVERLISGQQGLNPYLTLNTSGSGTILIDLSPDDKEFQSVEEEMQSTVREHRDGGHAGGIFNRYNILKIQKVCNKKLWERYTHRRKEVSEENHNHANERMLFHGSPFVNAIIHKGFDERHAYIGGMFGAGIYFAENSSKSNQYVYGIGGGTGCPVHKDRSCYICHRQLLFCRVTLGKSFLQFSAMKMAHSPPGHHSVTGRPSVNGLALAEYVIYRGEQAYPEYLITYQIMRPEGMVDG
Description: Inhibition of N-terminal His-tagged Z-basic-fused human ARTD6 (873 to 1161 residues) expressed in Escherichia coli Rosetta2 (DE3) using TCEP as substrate after 18 hrs in presence of NAD+.
Usually IC50 stands for the midpoint of a concentration-inhibition curve. For `COc1ccc(C(N)=O)cc1`, the IC50 is more than 100 µM.

`NC(=O)c1ccc(OCc2ccccc2F)cc1`: the IC50 was more than 100 µM.

`NC(=O)c1ccc(Oc2ccc(C=O)cc2)cc1`: the IC50 is more than 100 µM.

For `NC(=O)c1ccc(Oc2ccc(C(=O)O)cc2)cc1`, the IC50 is more than 100 µM.

The target in the next experiment is Poly [ADP-ribose] polymerase 1 (Homo sapiens, UniProt P09874). The experiment in a line: Inhibition of N-terminal His-tagged human ARTD1 (1 to 1014 residues) expressed in Escherichia coli Rosetta2 (DE3) using activated DNA as substrate after 1.5 hrs in presence of NAD+.
Chain of Poly [ADP-ribose] polymerase 1 (P09874 whole entry, the tested form may be a part): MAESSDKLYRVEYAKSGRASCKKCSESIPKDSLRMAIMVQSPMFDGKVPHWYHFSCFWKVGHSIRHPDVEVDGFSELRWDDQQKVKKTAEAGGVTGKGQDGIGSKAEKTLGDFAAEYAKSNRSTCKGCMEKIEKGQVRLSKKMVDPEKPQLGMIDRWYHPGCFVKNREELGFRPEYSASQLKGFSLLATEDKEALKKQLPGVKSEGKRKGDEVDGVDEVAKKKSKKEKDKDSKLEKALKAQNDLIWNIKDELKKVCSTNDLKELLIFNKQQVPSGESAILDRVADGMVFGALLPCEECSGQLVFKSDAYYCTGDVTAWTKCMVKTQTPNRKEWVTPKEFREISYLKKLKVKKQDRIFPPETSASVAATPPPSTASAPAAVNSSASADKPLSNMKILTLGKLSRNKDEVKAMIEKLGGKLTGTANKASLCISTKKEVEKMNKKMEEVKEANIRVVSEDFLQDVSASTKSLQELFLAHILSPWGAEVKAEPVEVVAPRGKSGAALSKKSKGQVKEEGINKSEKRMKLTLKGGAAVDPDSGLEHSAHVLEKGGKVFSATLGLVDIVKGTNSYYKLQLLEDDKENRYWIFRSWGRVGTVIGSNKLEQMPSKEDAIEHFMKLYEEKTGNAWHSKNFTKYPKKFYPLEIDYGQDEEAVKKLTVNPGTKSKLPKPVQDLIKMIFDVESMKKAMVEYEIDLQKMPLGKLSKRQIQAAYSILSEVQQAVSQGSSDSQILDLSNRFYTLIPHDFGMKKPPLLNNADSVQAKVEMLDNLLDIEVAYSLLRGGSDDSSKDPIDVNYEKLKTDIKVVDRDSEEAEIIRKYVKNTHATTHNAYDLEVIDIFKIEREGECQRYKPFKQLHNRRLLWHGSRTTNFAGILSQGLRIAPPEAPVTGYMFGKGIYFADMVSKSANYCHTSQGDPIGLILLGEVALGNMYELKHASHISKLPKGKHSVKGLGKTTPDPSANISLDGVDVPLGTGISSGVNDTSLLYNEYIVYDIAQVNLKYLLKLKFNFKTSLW
With `COc1ccc(C(N)=O)cc1`, the IC50 turned out to be 57 µM.

Regarding `NC(=O)c1ccc(OCc2ccccc2F)cc1`, the IC50 is more than 100 µM.

For `NC(=O)c1ccc(Oc2ccc(C=O)cc2)cc1`, the IC50 was more than 100 µM.

Turning to `NC(=O)c1ccc(Oc2ccc(C(=O)O)cc2)cc1`, the half-inhibitory concentration (IC50) was more than 100 µM.

The next experiment deals with Protein mono-ADP-ribosyltransferase PARP4 (Homo sapiens, UniProt Q9UKK3). The experiment in a line: Inhibition of N-terminal His-tagged human ARTD4 (250 to 565 residues) expressed in Escherichia coli Rosetta2 (DE3) using TCEP as substrate after 2.5 hrs in presence of NAD+.
Chain of Protein mono-ADP-ribosyltransferase PARP4 (Q9UKK3 whole entry, the tested form may be a part): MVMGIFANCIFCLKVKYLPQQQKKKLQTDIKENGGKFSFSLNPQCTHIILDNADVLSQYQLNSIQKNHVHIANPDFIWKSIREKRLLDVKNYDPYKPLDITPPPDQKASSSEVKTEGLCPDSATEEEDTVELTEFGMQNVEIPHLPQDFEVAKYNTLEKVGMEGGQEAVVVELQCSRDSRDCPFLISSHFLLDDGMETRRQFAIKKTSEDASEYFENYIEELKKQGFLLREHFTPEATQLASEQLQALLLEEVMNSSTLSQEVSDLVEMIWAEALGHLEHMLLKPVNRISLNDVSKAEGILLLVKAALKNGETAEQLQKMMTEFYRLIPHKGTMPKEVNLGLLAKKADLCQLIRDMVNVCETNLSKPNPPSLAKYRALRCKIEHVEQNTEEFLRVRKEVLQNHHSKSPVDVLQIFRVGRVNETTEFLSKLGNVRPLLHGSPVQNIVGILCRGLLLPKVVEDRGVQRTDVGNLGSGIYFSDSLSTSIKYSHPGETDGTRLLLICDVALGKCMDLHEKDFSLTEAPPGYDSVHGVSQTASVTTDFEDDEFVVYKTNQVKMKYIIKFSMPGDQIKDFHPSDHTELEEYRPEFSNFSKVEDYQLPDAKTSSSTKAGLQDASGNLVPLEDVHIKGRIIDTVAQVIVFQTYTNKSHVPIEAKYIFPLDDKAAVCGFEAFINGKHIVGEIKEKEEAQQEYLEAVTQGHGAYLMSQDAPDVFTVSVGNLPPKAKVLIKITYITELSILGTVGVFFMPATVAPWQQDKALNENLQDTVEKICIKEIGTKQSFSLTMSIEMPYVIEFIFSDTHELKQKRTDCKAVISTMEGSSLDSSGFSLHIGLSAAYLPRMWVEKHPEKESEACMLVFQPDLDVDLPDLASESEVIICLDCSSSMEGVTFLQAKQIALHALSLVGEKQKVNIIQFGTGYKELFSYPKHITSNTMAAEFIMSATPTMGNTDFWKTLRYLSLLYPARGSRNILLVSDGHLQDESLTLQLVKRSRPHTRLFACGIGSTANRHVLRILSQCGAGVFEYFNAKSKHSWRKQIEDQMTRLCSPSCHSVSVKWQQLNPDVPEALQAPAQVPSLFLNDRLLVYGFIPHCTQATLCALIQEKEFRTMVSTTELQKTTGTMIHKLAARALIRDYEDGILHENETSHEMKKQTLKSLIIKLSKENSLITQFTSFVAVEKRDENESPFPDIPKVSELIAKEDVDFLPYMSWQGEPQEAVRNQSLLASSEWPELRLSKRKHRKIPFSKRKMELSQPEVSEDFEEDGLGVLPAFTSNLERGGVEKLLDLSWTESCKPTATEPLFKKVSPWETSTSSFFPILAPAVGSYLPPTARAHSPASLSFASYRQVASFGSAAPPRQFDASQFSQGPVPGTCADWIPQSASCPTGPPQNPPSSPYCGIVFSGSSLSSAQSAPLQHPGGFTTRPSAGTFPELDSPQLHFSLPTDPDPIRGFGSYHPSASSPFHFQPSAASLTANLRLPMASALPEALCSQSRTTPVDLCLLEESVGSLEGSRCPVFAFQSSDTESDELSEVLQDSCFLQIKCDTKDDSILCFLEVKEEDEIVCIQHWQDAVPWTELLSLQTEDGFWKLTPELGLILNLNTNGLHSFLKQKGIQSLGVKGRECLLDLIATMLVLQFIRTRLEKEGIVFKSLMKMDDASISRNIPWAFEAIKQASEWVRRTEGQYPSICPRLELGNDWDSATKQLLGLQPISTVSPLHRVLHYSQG
Regarding `COc1ccc(C(N)=O)cc1`, the IC50 came out at 65 µM.

Take `NC(=O)c1ccc(OCc2ccccc2F)cc1`: the IC50 was more than 100 µM.

Consider `NC(=O)c1ccc(Oc2ccc(C=O)cc2)cc1`, for which the IC50 is more than 100 µM.

Turning to `NC(=O)c1ccc(Oc2ccc(C(=O)O)cc2)cc1`, the 50% inhibitory concentration (IC50) is more than 100 µM.

In a further experiment the target is T2, Protein mono-ADP-ribosyltransferase PARP16 (Homo sapiens, UniProt Q8N5Y8).
T2 sequence (Q8N5Y8 whole entry): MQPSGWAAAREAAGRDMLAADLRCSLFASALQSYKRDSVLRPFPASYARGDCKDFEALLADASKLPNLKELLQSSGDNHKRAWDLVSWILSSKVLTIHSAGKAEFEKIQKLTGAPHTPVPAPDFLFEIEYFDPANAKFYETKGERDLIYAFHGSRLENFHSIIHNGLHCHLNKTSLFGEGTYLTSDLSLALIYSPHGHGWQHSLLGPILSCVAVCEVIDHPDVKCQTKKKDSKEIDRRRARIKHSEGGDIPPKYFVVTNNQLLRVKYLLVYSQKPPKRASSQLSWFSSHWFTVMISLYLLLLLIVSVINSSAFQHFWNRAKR
The experiment in a line: Inhibition of N-terminal His-tagged human ARTD15 (1 to 280 residues) expressed in Escherichia coli Rosetta2 (DE3) after 24 hrs in presence of NAD+.
Consider `COc1ccc(C(N)=O)cc1`, for which the IC50 was more than 10 µM.

On to `NC(=O)c1ccc(OCc2ccccc2F)cc1`, for which the IC50 is more than 10 µM.

For `NC(=O)c1ccc(Oc2ccc(C=O)cc2)cc1`, the IC50 is more than 10 µM.

As to `NC(=O)c1ccc(Oc2ccc(C(=O)O)cc2)cc1`, the IC50 is more than 10 µM.

The target of a further experiment is T3, Protein mono-ADP-ribosyltransferase PARP10 (Homo sapiens) (UniProt Q53GL7).
T3 sequence (whole entry): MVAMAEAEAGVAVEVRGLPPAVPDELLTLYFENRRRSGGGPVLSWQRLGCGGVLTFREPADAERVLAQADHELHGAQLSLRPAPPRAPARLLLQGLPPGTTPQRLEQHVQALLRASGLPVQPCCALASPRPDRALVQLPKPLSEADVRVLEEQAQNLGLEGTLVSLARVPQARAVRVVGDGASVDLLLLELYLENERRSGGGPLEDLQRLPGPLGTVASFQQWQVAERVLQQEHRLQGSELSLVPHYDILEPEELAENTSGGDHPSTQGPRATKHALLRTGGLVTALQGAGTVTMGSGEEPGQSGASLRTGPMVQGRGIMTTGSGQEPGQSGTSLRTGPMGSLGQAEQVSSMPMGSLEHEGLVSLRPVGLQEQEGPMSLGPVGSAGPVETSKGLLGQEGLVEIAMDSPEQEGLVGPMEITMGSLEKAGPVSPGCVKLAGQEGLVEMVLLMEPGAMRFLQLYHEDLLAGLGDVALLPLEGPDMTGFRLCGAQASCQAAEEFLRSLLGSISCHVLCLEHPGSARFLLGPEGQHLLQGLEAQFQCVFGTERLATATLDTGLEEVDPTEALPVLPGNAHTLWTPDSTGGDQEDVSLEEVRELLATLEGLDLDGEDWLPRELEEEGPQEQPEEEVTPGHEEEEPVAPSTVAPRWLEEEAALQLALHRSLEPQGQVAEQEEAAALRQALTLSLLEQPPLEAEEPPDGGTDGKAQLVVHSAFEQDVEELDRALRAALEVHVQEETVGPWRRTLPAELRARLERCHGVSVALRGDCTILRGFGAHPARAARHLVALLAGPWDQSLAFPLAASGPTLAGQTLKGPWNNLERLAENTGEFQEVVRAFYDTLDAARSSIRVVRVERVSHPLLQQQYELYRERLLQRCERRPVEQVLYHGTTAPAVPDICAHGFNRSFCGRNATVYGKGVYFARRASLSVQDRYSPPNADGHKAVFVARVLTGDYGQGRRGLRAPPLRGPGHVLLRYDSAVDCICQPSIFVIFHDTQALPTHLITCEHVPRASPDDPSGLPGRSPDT
Description: Stabilization of C-terminal His-tagged human ARTD10 (809 to 1017 residues) expressed in Escherichia coli Rosetta2 (DE3) assessed as change in melting temperature at 100 uM by SYPRO Orange-dye based differential scanning fluorimetric method
As usually defined, the ΔTm is the shift of the melting midpoint relative to a reference. For the compound `COc1ccc(C(N)=O)cc1`, the ΔTm came out at 2.76 °C.

As for `NC(=O)c1ccc(OCc2ccccc2F)cc1`, the ΔTm was determined as 4.2 °C.

Consider `NC(=O)c1ccc(Oc2ccc(C=O)cc2)cc1`, for which the ΔTm stood at 3.6 °C.

`NC(=O)c1ccc(Oc2ccc(C(=O)O)cc2)cc1`: the ΔTm turned out to be 5.21 °C.
